Results reported in patent US20120053227A1, “miR-33 INHIBITORS AND USES THEREOF” (New York University, priority 2010, published 2012).

What was measured:
[1] = tested on: Huh7 cells; assay: mRNA and protein expression of miR-33 target genes in transfected Huh7 cells; format: cell-based; conditions: for CROT, CPT1a, HADHB, AMPKα, SIRT6, and IRS2 protein expression: to a similar extent for miR-33a and miR-33b
Procedure: Total RNA was isolated using TRIzol reagent (Invitrogen) according to the manufacturer's protocol. For mRNA quantification, cDNA was synthesized using Taqman RT reagents (Applied Biosystems), following the manufacturer's protocol. Quantitative real-time PCR was performed in triplicate using iQ SYBR green Supermix (BioRad) on iCycler Real-Time Detection System (BioRad). The mRNA level was normalized to GAPDH as a house keeping gene. The primers sequences used were: […]
(§1) HepG2 and Huh7 cells were transfected with 40 nM miRIDIAN miRNA mimics (miR-33) or 60 nM miRIDIAN miRNA inhibitors (anti-miR-33) (Dharmacon) using Oligofectamine (Invitrogen). All experimental control samples were treated with an equal concentration of a nontargeting control mimic sequence (CM) or an inhibitor negative control sequence (CI) to control for nonsequence-specific effects in miRNA experiments

[2] = tested on: 3′ UTR of Crot, Cpt1a, Hadhb, Ampkα, and Irs2; assay: 3′ UTR luciferase reporter assay, Crot, Cpt1a, Hadhb, Ampkα, Irs2; format: cell-based; conditions: only modest differences between miR-33a and miR-33b
Text: (§2) cDNA fragments corresponding to the entire 3′ UTR of carnitine O-octaniltransferase (Crot), carnitine palmitoyltransferase 1A (Cpt1a), hydroxyacyl-CoAdehydrogenase (Hadhb), AMP kinase subunit-α (Ampkα), and insulin receptor substrate 2 (Irs2), citrate synthase (Cs), 3-hydroxy-3-methylglutaryl CoA (Hmgcr), and Sirtuin 6 (Sirt6) were amplified by RT-PCR from total RNA extracted from HepG2 cells with XhoI and NotI linkers. The PCR products were directionally cloned downstream of the Renilla luciferase ORF of the ψCHECK2 vector (Promega) that also contains a constitutively expressed firefly luciferase gene, which is used to normalize transfections. Point mutations in the seed region of predicted miR-33 sites within the 3′ UTR of Crot, Cpt1a, Hadhb, Ampkα, and Sirt6 were generated using Multisite-Quickchange (Stratagene) according to the manufacturer's protocol. All constructs were confirmed by sequencing. COS-7 cells were plated into 12-well plates (Costar) and cotransfected with 1 μg indicated 3′ UTR luciferase reporter vectors and the miR-33 mimic or negative control mimic (CM) (Dharmacon) using Lipofectamine 2000 (Invitrogen). Luciferase activity was measured using the Dual-Glo Luciferase Assay System (Promega). […]

[3] = tested on: Huh7 cells; assay: AKT and ERK phosphorylation after insulin stimulation; format: cell-based
Procedure: Cell were lysed in ice-cold buffer containing 50 mM Tris-HCl, pH 7.5, 125 mM NaCl, 1% NP-40, 5.3 mM NaF, 1.5 mM NaP and 1 mM orthovanadate, 175 mg/ml octylglucopyranoside and 1 mg/ml of protease inhibitor cocktail (Roche) and 0.25 mg/ml AEBSF (Roche). Cell lysates were rotated at 4° C. for 1 h before the insoluble material were removed by centrifugation at 12000×g for 10 min. After normalizing for equal protein concentration, cell lysates were resuspended in SDS sample buffer before separation by SDS-PAGE. Following overnight transfer of the proteins onto nitrocellulose membranes. The membranes were probed with the indicated antibodies, and protein bands were visualized using the Odyssey Infrared Imaging System (LI-COR Biotechnology). Densitometry analysis of the gels was carried out using ImageJ software from the NIH (http://rsbweb.nih.gov/ij/).
as §1

[4] = tested on: Huh7 cells; assay: Fatty acid β-oxidation assay ([14C]-oleate); format: cell-based
Procedure: HepG2 and Huh7 cells were transfected with miR-33 (20 nM), anti-miR-33 (40 nM), or negative control (con-miR and con-inh, respectively), and the rate of fatty acid oxidation was determined. Cells were cultured in the presence of [^14C]-oleate (Perkin-Elmer)-BSA complex, and the released [^14C]-carbon dioxide was trapped for 1 h at 37° C. onto filter paper soaked in 100 mM sodium hydroxide. The rate of β-oxidation was calculated as the amount of trapped [^14C]-carbon dioxide in relative units produced per milligram of protein per hour. Experiments were performed in triplicate in p60 plates and were repeated at least three times.

[5] = tested on: Sirt6 3′ UTR; assay: 3′ UTR luciferase reporter assay, Sirt6; format: cell-based, human
Text: as §2

[6] = tested on: Huh7 cells; assay: Triglyceride content and synthesis in Huh7 cells incubated with oleate and starved; format: cell-based; conditions: oleate 24 h then starved 24 h
Procedure: The accumulation of neutral lipids and lipid droplet formation was next evaluated tin Huh7 cells incubated with oleate for 24 h and then starved for the next 24 h. […] The increase in triglyceride content was independent of changes in triglyceride synthesis rates.

[7] = tested on: Huh7 cells; assay: 2-Deoxyglucose uptake; format: cell-based
Procedure: Huh7 cells were transfected with miR-33b (20 nM) or negative control (Con-miR) for 48 h. Then, cells were cultured in serum-free media for 24 h, washed two times, and placed into warmed buffer for 2 h before glucose uptake studies. Insulin (100 nM) was added for 10 min. After this, […] 2-deoxyglucose (2-DOG) was added to each well (Perkin-Elmer). After 5 min, 5% unlabeled glucose was added to stop the reaction. Cells were then washed two times in 5% glucose and lysed by the addition of 0.5% SDS; 3 mL Ultima Gold scintillant (Packard) were added, samples were vortexed, and radioactivity was counted.

Substance | CROT, CPT1a, HADHB, AMPKα, SIRT6, and IRS2 protein expression [1] | 3′ UTR activity of Crot, Cpt1a, Hadhb, Ampkα, and Irs2 [2] | AKT and ERK phosphorylation [3] | miR-33b expression, fold increase [4] | rate of fatty acid β-oxidation [4] | SIRT6 mRNA and protein levels [1] | miR-33b expression after transfection, increase [1] | mRNA levels of CROT, CPT1a, HADHB, AMPKα, and IRS2 ([1]; anti-miR-33b: CROT, CPT1a, AMPKα, IRS2) | 3′ UTR activity of Sirt6 [5] | triglycerides (TAG) accumulation [6] | insulin-induced 2-deoxyglucose (2-DOG) uptake [7]
miR-33a: miR-33a transfected into Huh7 cells; human miR-33a sequence GUGCAUUGUAGUUGCAUUGCA (SEQ ID NO:32) (listed as RNA, chemistry not given here; listed as Homo sapiens) | inhibited | significantly inhibited | – | – | – | – | – | – | – | – | –
miR-33b: miR-33b transfected into Huh7 cells; human miR-33b sequence GUGCAUUGCUGUUGCAUUGC (SEQ ID NO:34) (listed as RNA, chemistry not given here; listed as Homo sapiens) | inhibited | significantly inhibited | reduced | 27 fold | markedly reduced | significantly inhibited | 32 fold | significantly inhibited | markedly repressed | accumulated more triglycerides | reduced
